Source: patent US12583895B2, “Polypeptides for restoring endothelial function and methods of use thereof” (Vanderbilt University, priority 2019, dated 2026)
Entries after “also recorded” stand apart in the source; their conditions may differ. Non-standard residues stand in square brackets, D forms with d. No end group written: not given here. pS = N[C@@H](COP(=O)(O)O)C(=O)O

Columns and labels:
rat aorta [1] = assay: Endothelial-dependent relaxation of rat aorta after BzATP (ATP / P2X7R) injury, muscle bath; format: cell-based; conditions: BzATP 1 mM, room temperature; for endothelial function (percent relaxation to carbachol of PE-precontracted tissue) after BzATP injury: peptide 100 and 500 μM, 1 hour
Experimental: Freshly isolated rat aorta was treated with 3′-O-(4-Benzoyl)benzoyl adenosine 5′-triphosphate (BzATP, 1 mM), an analogue of ATP, to induce injury in the absence or presence of NiPp (100 and 500 μM) for 1 hour at room temperature. To determine the effect of injury on endothelial function, phenylephrine (PE)-precontracted tissues were treated with carbachol (CCH; 5×10^−7 M) and the percent relaxation was determined as a change to the maximal PE-induced contraction. Data are reported as mean responses±standard deviation. n=5-6. *p<0.05, paired t-test.
Freshly isolated rat aorta was treated with 3′-O-(4-Benzoyl)benzoyl adenosine 5′-triphosphate (BzATP, 1 mM), an analogue of ATP, to induce injury in the absence or presence of NiPp, NiPp3, or scr3NiPp (A, 100 and B, 500 μM) for 1 hour at room temperature. To determine the effect of injury on endothelial function, phenylephrine (PE)-precontracted tissues were treated with escalating doses of carbachol (CCH; 10^−10 to 10^−5M) and the percent relaxation was determined as a change to the maximal PE-induced contraction. n=7. *p<0.05, two-way ANOVA with Tukey post-tests. There were significant differences between BzATP-treated vs ctrl or NiPp-treated RA.
Tissue rings were then transferred to NS and continued incubation in the absence or presence of NiPp (500 μM) for 2 h at room temperature. Control rings (Ctrl) were incubated in PL for 2.5 h. […] After treatments, RA were suspended in the muscle bath, contracted with PE and then treated with escalating doses of carbachol (CCH; 10^−8 to 10^−5M). The percent relaxation was determined as a change to the maximal PE-induced contraction. Percent relaxation to 5×10^−7 M CCH is shown. n=5-7 rats. *p<0.05 in one-way ANOVA with Tukey post-test. Data are expressed as mean±SD.
NiPp was synthesized at 3 separate times and tested in the muscle bath using rat aorta (RA). RA was either left untreated (Ctrl) or treated with BzATP (1 mM) in the absence of presence of NiPp (500 μM) in PL for 2 h at room temperature. After treatments, RA were suspended in the muscle bath, contracted with PE and then treated with escalating doses of carbachol 5×10^−7 M CCH. The percent relaxation was determined as a change to the maximal PE-induced contraction. […] Data are expressed as mean±SD.
Measurement of endothelial-dependent relaxation. […]
(§1) This produced the maximal force tension relationship as previously described. […] Contractile responses were defined by stress, calculated using force generated by tissues as follows: stress (×10^5 N/m^2)=force (g)×0.0987/area, where area=wet weight (mg)/at maximal length (mm)]/1.055.
(§2) Relaxation was calculated as percent change in stress compared to the maximal PE-induced contraction (set as 100%). […]

rat aorta [2] = assay: Endothelial-dependent relaxation of rat aorta after subfailure stretch injury, muscle bath; format: cell-based; conditions: stretch about 2 times resting length, peptide 500 μM, 1 hour, room temperature
Experimental: Freshly isolated rat aorta (RA) was subjected to subfailure stretch and incubated in PL in the absence (S) or presence of NiPp (500 μM) for 1 h at room temperature. […] The percent relaxation was determined as a change to the maximal PE-induced contraction. n=5 rats; #p<0.05, two-way ANOVA. […] Quantification of relative phosphorylation to total p38MAPK level is shown. N=10. *p<0.05, in one-way ANOVA with Tukey post-test. NiPp restores endothelial dysfunction and reduced p38 MAPK phosphorylation induced by stretch injury in RA.
Freshly isolated rat aorta was subjected to subfailure stretch (to haptic endpoint, approximately 2 times the resting length) and treated with NiPp, NiPp3, or scr3NiPp (500 μM) for 1 hour at room temperature. To determine the effect of injury on endothelial function, phenylephrine-precontracted tissues were treated with carbachol (CCH; 10^−8 to 10^−5M) and the percent relaxation was determined as a change to the maximal PE-induced contraction. Data are reported as mean responses±standard deviation. n=8. *p<0.05, two-way ANOVA with Tukey post-tests. There were significant differences between Stretch (S) vs. ctrl or NiPp-treated RA.
Measurement of endothelial-dependent relaxation. Rings of HSV or RA (1-2 mm) were suspended in a muscle bath containing a bicarbonate buffer (120 mM sodium chloride, 4.7 mM potassium chloride, 1.0 mM magnesium sulfate, 1.0 mM monosodium phosphate, 10 mM glucose, 1.5 mM calcium chloride, and 25 mM sodium bicarbonate, pH 7.4) equilibrated with 95% O2/5% CO2 at 37° C. for 1 h at a resting tension of 1 g, manually stretched to three times the resting tension, and maintained at resting tension for an additional 1 h.
as §1, §2

Row | Substance | endothelial function (percent relaxation to carbachol of PE-precontracted tissue) after BzATP injury (rat aorta [1]) | endothelial function (percent relaxation to carbachol) after subfailure stretch injury (rat aorta [2]) | endothelial function (percent relaxation to 5×10^−7 M CCH) after P2X7R activation by BzATP (rat aorta [1]; NiPp 500 μM in PL, 1 h)
1 | YARAAARQARAAGSPPLA(pS)AIARR (YARAAARQARAAGSPPLA[pS]AIARR) [scr3NiPp] | did not restore | did not restore | 
2 | YARAAARQARASPAARRA(pS)AILPG (YARAAARQARASPAARRA[pS]AILPG) [NiPp, Cell-permeant phosphopeptide mimetic of Niban: transduction domain … conjugated to the region surrounding serine 602 of Niban] | restored | restores | prevented; also recorded: restores
3 | YARAAARQARASPAARRASAILPG (not fully specified (residue 19)) [NiPp3] | did not restore | did not restore | 
